Data taken from ChEMBL document CHEMBL1154197, “Synthesis and biological evaluation of berberine analogues as novel up-regulators for both low-density-lipoprotein receptor and insulin receptor” (2009).
Activity calls are given as the source filed them. The calls are words filed in the database; no cut-off is given here.

Assays:
HepG2 [1] = assay: Upregulation of LDLR mRNA expression in human liver HepG2 at 10 ug/mL after 8 hrs by RT-PCR relative to control; assay type: functional
HepG2 [2] = assay: Upregulation of InsR mRNA expression in human liver HepG2 at 10 ug/mL after 8 hrs by RT-PCR relative to control; assay type: functional
HepG2 [3] = assay: Upregulation of InsR […] expression in human liver HepG2 at 10 ug/mL after 12 hrs by flow cytometry; assay type: functional, cell-based
HepG2 [4] = assay: Upregulation of LDLR […] expression in human liver HepG2 at 10 ug/mL after 12 hrs by flow cytometry; assay type: functional, cell-based

SMILES	fold change (FC) (HepG2 [1])	fold change (FC) (HepG2 [2])	Activity (HepG2 [3])	Activity (HepG2 [4])
COc1ccc2cc3[n+](cc2c1OC)CCc1cc(O)ccc1-3.[Cl-]	0.8	1.2		
COc1cc2cc3[n+](cc2cc1OC)CCc1cc(OCc2ccccc2)ccc1-3.[Cl-]	1	0.8		
COc1cc2c(cc1OC)-c1cc3cc(OC)c(OC)cc3c[n+]1CC2.[Cl-]	1.1	1.1		
COc1cc2c(cc1O)CC[n+]1cc3cc(OC)c(OC)cc3cc1-2.[Cl-] [DEHYDRODISCRETINE CHLORIDE]	1	0.6		
COc1cc2c(cc1O)CC[n+]1cc3cc(O)ccc3cc1-2.[Cl-]	1.4	1.2		
COc1cc2cc3[n+](cc2cc1OC)CCc1cc(O)ccc1-3.[Cl-]	0.9	0.7		
COc1cc2c(cc1O)CC[n+]1cc3cc(OC)c(OC)c(OC)c3cc1-2.[Cl-]	1	1		
COc1cc2cc3[n+](cc2cc1OC)CCc1cc(OC)c(OC)c(OC)c1-3.[Cl-]	1.1	0.8		
COc1ccc2cc3[n+](cc2c1OC)CCc1cc2c(cc1-3)OCO2.[Cl-] [BERBERINE CHLORIDE]	1.9	2.3		
COc1c(O)ccc2cc3[n+](cc12)CCc1cc2c(cc1-3)OCO2.[Cl-] [THALIFENDINE]	1.6	1.7	Active	Active
COc1cc2cc3[n+](cc2cc1OC)CCc1cc2c(cc1-3)OCO2.[Cl-] [PSEUDOBERBERINE]	3.1	1.2		
COc1cc2c(c(OC)c1OC)-c1cc3ccc(OC)c(OC)c3c[n+]1CC2.[Cl-]	1.1	1.2		
COc1cc2c(cc1O)-c1cc3cc(OC)c(OC)cc3c[n+]1CC2.[Cl-]	1.1	0.8		
COc1ccc2cc3[n+](cc2c1OC)CCc1cc(OCc2ccccc2)ccc1-3.[Cl-]	1.3	1.3		
COc1cc2c(cc1OCc1ccccc1)-c1cc3ccc(OC)c(OC)c3c[n+]1CC2.[Cl-]	1.5	1.7		
COc1cc2c(cc1OC)-c1cc3ccc(O)cc3c[n+]1CC2.[Cl-]	1	0.9		
Oc1ccc2cc3[n+](cc2c1)CCc1cc2c(cc1-3)OCO2.[Cl-]	1.9	1.4		
